Reference: patent US6180622A, “Imidazo[5,1-b]thiazol-3-yl carbapenem antimicrobials” (priority 1996, dated 2001)
Converted amounts (≈) assume the structure as drawn. Where two headings read alike, the source gives them in different places.

Columns and labels:
[1] = Stability against DHP-I (mouse); assay type: in vitro ADME; conditions: kidney dhp-i, 100 μg (potency)/ml, 37° C., pH 7.0, read-out: residue (%) of the carbapenem derivative
Protocol: (§1) The stability of representative compounds, among the novel carbapenem derivatives of the present invention, against kidney dehydropeptidase-I (DHP-I) of a pig and a mouse was measured, and the residue (%) of the carbapenem derivatives three hr after the initiation of the test is summarized in Table 6.
(§2) 1.5 g of a kidney acetone powder (manufactured by Sigma) Porcine Type II (Lot. 33H7225) was suspended in 100 ml of 50 mM Tris-HCl buffer (pH 7.0) containing 20% butanol, and the suspension was stirred at 5° C. for 48 hr. The suspension was then dialyzed against 50 mM Tris-HCl buffer (pH 7.0) (a cellulose tube 30/32 Viskase Sales Corp.) until the odor of butanol disappeared, thereby removing butanol. The dialyzate is centrifuged at 10000×g (KUBOTA 6800) for 20 min, and the supernatant was obtained as a partially purified DHP-I. This partially purified DHP-I was subdivided and stored at -80° C. The above procedure was repeated, except that 1.5 g of Mouse (Lot. 23F8105) was used. Thus, a partially purified DHP-I was prepared and stored.
(§3) For the carbapenem as the substrate agent, a solution (2000 μg (potency)/ml) was prepared using sterilized, purified water. For the sample solution, the carbapenem (2000 μg (potency)/ml) solution was added to the partially purified DHP-I of each animal to a final concentration of 100 μg (potency)/ml). For the blank, 50 mM Tris-HCl buffer (pH 7.0) was used instead of the partially purified DHP-I of each animal. The reaction was allowed to proceed at 37° C. for 3 hr, and a given amount of the reaction mixture was sampled. Methanol in the same amount as the sampled reaction mixture was added under ice cooling to terminate the reaction. The reaction mixture was filtered through a filter (Sanprep LCR 13-LH manufactured by MILLIPORE) and subjected to HPLC (column: CAPCELL PACK C18SG120, manufactured by Shiseido Co., Ltd.; detection: UV; mobile layer: acetonitrile/10 mM aqueous acetic acid solution) to determined the residue (%).
(§4) Residue (%)=(Sample Peak Area/Blank Peak Area)×100

[2] = Stability against DHP-I (pig); assay type: in vitro ADME; conditions: kidney dhp-i, 100 μg (potency)/ml, 37° C., pH 7.0, read-out: residue (%) of the carbapenem derivative
Protocol: as §1, §2, §3, §4

K. pneumoniae PCI602 = assay: Antimicrobial activity (minimum inhibitory concentration); assay type: cell-based; conditions: Klebsiella pneumoniae
Protocol: (§5) For representative compounds among the novel carbapenem derivatives of the present invention, the minimum inhibitory concentration (MIC, μg/ml) against various pathogenic bacteria was measured in accordance with a method described in CHEMOTHERAPY, Vol. 16, No. 1, 99 (1968).

P. vulgaris GN76 = assay: as above; assay type: cell-based; conditions: Proteus vulgaris
Protocol: as §5

M. morganii 1510 = assay: as above; assay type: cell-based; conditions: Morganella morganii
Protocol: as §5

Ps. aeruginosa GN10362 = assay: as above; assay type: cell-based; conditions: Pseudomonas aeruginosa
Protocol: as §5

E. cloacae G-0008 = assay: as above; assay type: cell-based; conditions: Enterobacter cloacae, G0008
Protocol: as §5

E. coli GN206 = assay: as above; assay type: cell-based; conditions: Escherichia coli
Protocol: as §5

S. marcescens No. 1 = assay: as above; assay type: cell-based; conditions: Serratia marcescens
Protocol: as §5

C. freundii GN346 = assay: as above; assay type: cell-based; conditions: Citrobacter freundii
Protocol: as §5

E. coli NIHJ JC-2 = assay: as above; assay type: cell-based; conditions: Escherichia coli, NIHJJC2
Protocol: as §5

S. aureus M126 = assay: as above; assay type: cell-based; conditions: Staphylococcus aureus; S. aureus M126, highly meticillin-resistant strain
Protocol: as §5

S. aureus 209P JC-1 = assay: as above; assay type: cell-based; conditions: Staphylococcus aureus
Protocol: as §5

[3] = P. vulgaris GN76, read-out: MIC
[4] = Ps. aeruginosa GN10362, read-out: MIC

SMILES: C[C@@H](O)[C@H]1C(=O)N2C(C(=O)O)=C(S[C@@H]3CN[C@H](Cc4cn5c[n+](CC(N)=O)cc5s4)C3)[C@H](C)[C@H]12 [Ex. 26, (1R,5S,6S)-2-[(3S,5S)-5-[6-(Carbamoylmethyl)imidazo[5,1-b]thiazolium-2-yl]methylpyrrolidin-3-yl]thio-6-((1R)-1-hydroxyethyl)-1-methylcarbapen-2-em-3-carboxylic acid iodide]
- remaining at 3 h [1]: 90%
- remaining at 3 h [2]: 95%
- MIC (K. pneumoniae PCI602): 0.1 mg/L
- MIC (P. vulgaris GN76; [3]): 0.39 mg/L
- MIC (M. morganii 1510): 0.39 mg/L
- MIC (Ps. aeruginosa GN10362; [4]): 0.78 mg/L
- MIC (E. cloacae G-0008): 0.05 mg/L
- MIC (E. coli GN206): 0.05 mg/L
- MIC (S. marcescens No. 1): 0.2 mg/L
- MIC (C. freundii GN346): 0.05 mg/L
- MIC (E. coli NIHJ JC-2): 0.05 mg/L
- MIC (S. aureus M126): 6.25 mg/L
- MIC (S. aureus 209P JC-1): < 0.025 mg/L

SMILES: C[C@@H](O)[C@H]1C(=O)N2C(C(=O)O)=C(SCCN=CN)C[C@H]12 [Compound A, Imipenem, reference compound]
- remaining at 3 h [1]: 0.6%
- remaining at 3 h [2]: 24%
- MIC (K. pneumoniae PCI602): 0.39 mg/L (≈ 1.3 µM)
- MIC (P. vulgaris GN76; GN76): 3.13 mg/L (≈ 10.5 µM)
- MIC (M. morganii 1510): 0.78 mg/L (≈ 2.61 µM)
- MIC (Ps. aeruginosa GN10362; GN10362): 1.56 mg/L (≈ 5.21 µM)
- MIC (E. cloacae G-0008): 0.1 mg/L (≈ 0.334 µM)
- MIC (E. coli GN206): 0.1 mg/L (≈ 0.334 µM)
- MIC (S. marcescens No. 1): 0.39 mg/L (≈ 1.3 µM)
- MIC (C. freundii GN346): 0.1 mg/L (≈ 0.334 µM)
- MIC (E. coli NIHJ JC-2): 0.1 mg/L (≈ 0.334 µM)
- MIC (S. aureus M126): 50 mg/L (≈ 167 µM)
- MIC (S. aureus 209P JC-1): < 0.025 mg/L

SMILES: C[C@@H](O)[C@H]1C(=O)N2C(C(=O)O)=C(S[C@@H]3CN[C@H](C(=O)N(C)C)C3)[C@H](C)[C@H]12 [Compound C, Meropenem]
- remaining at 3 h [1]: 18%
- remaining at 3 h [2]: 71%

SMILES: CC(=N)N1CC[C@H](SC2=C(C(=O)O)N3C(=O)[C@H]([C@@H](C)O)[C@H]3C2)C1 [Compound B, Panipenem, reference compound]
- remaining at 3 h [1]: 28%
- remaining at 3 h [2]: 19%
- MIC (K. pneumoniae PCI602): 0.2 mg/L (≈ 0.589 µM)
- MIC (P. vulgaris GN76; [3]): 3.13 mg/L (≈ 9.22 µM)
- MIC (M. morganii 1510): 0.78 mg/L (≈ 2.3 µM)
- MIC (Ps. aeruginosa GN10362; [4]): 12.5 mg/L (≈ 36.8 µM)
- MIC (E. cloacae G-0008): 0.2 mg/L (≈ 0.589 µM)
- MIC (E. coli GN206): 0.2 mg/L (≈ 0.589 µM)
- MIC (S. marcescens No. 1): 0.39 mg/L (≈ 1.15 µM)
- MIC (C. freundii GN346): 0.2 mg/L (≈ 0.589 µM)
- MIC (E. coli NIHJ JC-2): 0.1 mg/L (≈ 0.295 µM)
- MIC (S. aureus M126): 25 mg/L (≈ 73.7 µM)
- MIC (S. aureus 209P JC-1): < 0.025 mg/L
